Data as given in PubChem BioAssay (NCI).
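Step 1: Grow cells in 96-well plates. Step 2: Expose to compound for 48 hours at 5 concentrations. Step 3: Interpolate endpoints linearly; if unreached, use highest concentration. GI50 = concentration required for 50% inhibition of growth. At the TGI there is no net growth.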

What was measured:
Assay in all cases: NCI tumour cell line growth inhibition, 48 h
[1] = test system: K-562 leukemia
[2] = test system: BT-549 breast
[3] = test system: SR leukemia
[4] = test system: MDA-MB-231 breast
[5] = test system: SF-268 CNS
[6] = test system: M14 melanoma
[7] = test system: SK-MEL-5 melanoma
[8] = test system: UACC-257 melanoma
[9] = test system: HCT-15 colon
[10] = test system: ACHN renal
[11] = test system: NCI-H460 lung
[12] = test system: OVCAR-5 ovarian
[13] = test system: HS 578T breast
[14] = test system: SF-295 CNS
[15] = test system: OVCAR-8 ovarian
[16] = test system: 786-0 renal
[17] = test system: CCRF-CEM leukemia
[18] = test system: IGROV1 ovarian
[19] = test system: SF-539 CNS
[20] = test system: SN12C renal
[21] = test system: SNB-75 CNS
[22] = test system: MALME-3M melanoma
[23] = test system: RPMI-8226 leukemia
[24] = test system: EKVX NSCLC
[25] = test system: NCI-H23 lung
[26] = test system: T-47D breast
[27] = test system: NCI-H226 lung
[28] = test system: DU-145 prostate
[29] = test system: UACC-62 melanoma
[30] = test system: SW-620 colon
[31] = test system: HCT-116 colon
[32] = test system: SK-MEL-2 melanoma
[33] = test system: HCC-2998 colon
[34] = test system: UO-31 renal
[35] = test system: PC-3 prostate
[36] = test system: MOLT-4 leukemia
[37] = test system: LOX IMVI melanoma
[38] = test system: SK-OV-3 ovarian
[39] = test system: TK-10 renal
[40] = test system: U251 CNS
[41] = test system: NCI/ADR-RES ovarian
[42] = test system: HOP-62 NSCLC
[43] = test system: HL-60(TB) leukemia
[44] = test system: NCI-H522 lung
[45] = test system: A549 NSCLC
[46] = test system: HT29 colon
[47] = test system: OVCAR-4 ovarian
[48] = test system: KM12 colon
[49] = test system: A498 renal
[50] = test system: CAKI-1 renal
[51] = test system: MDA-MB-435
[52] = test system: MCF7 breast
[53] = test system: SNB-19 CNS
[54] = test system: SK-MEL-28 melanoma

Structure (SMILES): COc1cc(-c2nnc(SCc3ccc(O)c4ncccc34)n2-c2ccccc2)cc(OC)c1OC
- GI50 [1]: 83 nM
- TGI [1]: > 100000 nM
- GI50 [2]: 178 nM
- TGI [2]: > 26000 nM
- GI50 [3]: 140 nM
- TGI [3]: > 100000 nM
- GI50 [4]: 390 nM
- TGI [4]: > 100000 nM
- GI50 [5]: 218 nM
- TGI [5]: > 100000 nM
- GI50 [6]: 386 nM
- TGI [6]: 2420 nM
- GI50 [7]: 207 nM
- TGI [7]: 899 nM
- GI50 [8]: 342 nM
- TGI [8]: 3220 nM
- GI50 [9]: 53 nM
- TGI [9]: > 100000 nM
- GI50 [10]: 285 nM
- TGI [10]: > 100000 nM
- GI50 [11]: 50 nM
- TGI [11]: 2030 nM
- GI50 [12]: 668 nM
- TGI [12]: > 100000 nM
- GI50 [13]: 161 nM
- GI50 [14]: 200 nM
- TGI [14]: > 100000 nM
- GI50 [15]: 102 nM
- TGI [15]: > 100000 nM
- GI50 [16]: 498 nM
- TGI [16]: > 20900 nM
- GI50 [17]: 188 nM
- TGI [17]: > 100000 nM
- GI50 [18]: 272 nM
- TGI [18]: > 100000 nM
- GI50 [19]: 262 nM
- GI50 [20]: 211 nM
- TGI [20]: > 100000 nM
- GI50 [21]: 229 nM
- TGI [21]: > 20200 nM
- GI50 [22]: 336 nM
- TGI [22]: > 20600 nM
- GI50 [23]: 190 nM
- TGI [23]: > 100000 nM
- GI50 [24]: 367 nM
- TGI [24]: > 100000 nM
- GI50 [25]: 75.7 nM
- TGI [25]: > 100000 nM
- GI50 [26]: 71.2 nM
- TGI [26]: > 100000 nM
- GI50 [27]: 359 nM
- TGI [27]: > 100000 nM
- GI50 [28]: 273 nM
- TGI [28]: > 100000 nM
- GI50 [29]: 331 nM
- TGI [29]: 2340 nM
- GI50 [30]: 158 nM
- TGI [30]: > 100000 nM
- GI50 [31]: 97.9 nM
- TGI [31]: > 40300 nM
- GI50 [32]: 197 nM
- TGI [32]: 626 nM
- GI50 [33]: 447 nM
- TGI [33]: > 100000 nM
- GI50 [34]: 113 nM
- TGI [34]: 991 nM
- GI50 [35]: 87.4 nM
- TGI [35]: > 100000 nM
- GI50 [36]: 294 nM
- TGI [36]: > 100000 nM
- GI50 [37]: 180 nM
- TGI [37]: 4440 nM
- GI50 [38]: 302 nM
- TGI [38]: 23500 nM
- GI50 [39]: 291 nM
- TGI [39]: > 100000 nM
- GI50 [40]: 66 nM
- TGI [40]: > 100000 nM
- GI50 [41]: 67.8 nM
- TGI [41]: > 100000 nM
- GI50 [42]: 261 nM
- GI50 [43]: 276 nM
- GI50 [44]: 86.3 nM
- TGI [44]: 921 nM
- GI50 [45]: 412 nM
- TGI [45]: > 100000 nM
- GI50 [46]: 2040 nM
- TGI [46]: > 100000 nM
- GI50 [47]: 400 nM
- TGI [47]: > 100000 nM
- GI50 [48]: 336 nM
- TGI [48]: > 100000 nM
- GI50 [49]: 320 nM
- TGI [49]: 2320 nM
- GI50 [50]: 274 nM
- TGI [50]: > 100000 nM
- GI50 [51]: 194 nM
- TGI [51]: > 100000 nM
- GI50 [52]: 37.7 nM
- TGI [52]: > 100000 nM
- GI50 [53]: 128 nM
- TGI [53]: > 100000 nM
- GI50 [54]: 367 nM
- TGI [54]: > 100000 nM
